Measurements taken from article PMC10525135, “Computationally Designed AMPs with Antibacterial and Antibiofilm Activity against MDR Acinetobacter baumannii” (Antibiotics, 2023).
≈ marks a conversion by molar mass, not a printed value. Like-named read-outs stand apart in the source and are kept apart here. Residues, ends and D or L forms follow the SMILES beside them.

Tests used:
Type in all cases: cell-based, Acinetobacter baumannii
A. baumannii AB5075 = experiment: Time-kill kinetics; conditions: AB5075, highest concentration (5 µg/mL)
Description: (§1) At the various timepoints, samples were serially diluted, and CFUs were counted by spot plating on a Tryptic Soy agar.

A. baumannii BAA-1710 [1] = experiment: Time-kill kinetics; conditions: BAA-1710, all tested concentrations (1×, 5×, 10× MIC; MIC = 0.5 µg/mL)
Description: as §1

A. baumannii BAA-1710 [2] = conditions: A. baumannii BAA-1710; Difco Mueller Hinton broth, 5 × 10^5 CFU/mL, 37 °C 5% CO2, 20–24 h, OD600, n = 3
Procedure: (§2) Minimum inhibitory concentration (n = 3) was performed according to the CLSI protocols with a minor modification, in which Difco Mueller Hinton broth (BD 275730, Franklin Lakes, NJ, USA) was used instead of cation-adjusted Mueller Hinton broth following Wiegand et al.’s standardized protocol for testing AMPs. Bacteria were grown overnight in an opaque colony, and the concentration was determined using McFarland’s technique. An aliquot of 50 µL of 1 × 10^6 CFU/mL of bacteria was incubated with a decreasing series of peptide concentration to achieve a final bacterial concentration of 5 × 10^5 CFU/mL at 37 °C 5% CO2 for 20–24 h in Difco Mueller Hinton broth. Dilutions were performed in a 96-well polypropylene plate (Corning 3879, Corning, NY, USA). This is critical to avoid peptide binding to the plate. Results were obtained by measuring bacterial growth at OD600 nm. LL-37 and polymyxin B were used as positive controls. Samples containing only the medium and medium with peptides were used as the sterility controls and samples containing only bacteria in MHB served as the growth control. Each experiment was performed twice, and one representative experiment is shown.

[3] = tested on: A. baumannii AB5075 (MRSN959)
Procedure: as §2

A. baumannii BAA-1800 = conditions: A. baumannii BAA-1800; Difco Mueller Hinton broth, 5 × 10^5 CFU/mL, 37 °C 5% CO2, 20–24 h, OD600, n = 3
Procedure: as §2

[4] = tested on: A. baumannii strains AB5075, BAA-1710, -1794, and -1800; conditions: summary over MDR A. baumannii strains of Table 3
Procedure: as §2

A. baumannii BAA-1794 = conditions: A. baumannii BAA-1794; Difco Mueller Hinton broth, 5 × 10^5 CFU/mL, 37 °C 5% CO2, 20–24 h, OD600, n = 3
Procedure: as §2

AB5075 [5] = experiment: Membrane permeabilization assay (ethidium bromide uptake); conditions: 50 µg/mL, 10 µM ethidium bromide, 20 min at 37 °C, versus untreated control
Procedure: Membrane permeabilization was assessed using ethidium bromide uptake after peptide exposure, as we have previously described. AB5075 was grown on a Tryptic Soy agar for 18–24 h. Colonies presenting opaque morphology were picked and resuspended in DPBS (Gibco, Waltham, MA, USA) to achieve 0.1 OD600. A total of 180 µL of the bacterial suspension was mixed with a final peptide concentration of 50 µg/mL and a final ethidium bromide concentration of 10 µM in a black 96-well flat plate (Ultracruz Polypropylene Microplate sc-204462, Santacruz, CA, USA). The plate was transferred immediately to BioTek Cytation 5 (Santa Clara, CA, USA) for fluorescence intensity readings every 2 min for 20 min at 37 °C (excitation: 535 nm; emission: 590 nm). The relative fluorescence units (RFUs) were calculated. Tested samples minus no peptide control that has EtBr. LL-37 and polymyxin B were used as the controls in this experiment. The experiment was run in three replicates twice. Student’s t-test was used to determine statistical significance.

[6] = tested on: AB5075 pre-formed (24 h) biofilm
Procedure: The MBEC assay measures the lowest concentration of an antimicrobial agent that can eradicate established biofilms. Using the MBEC assay in the Biofilm Inoculator 96-well base (Innovotech Cat #1911, Edmonton, AB, Canada) and following the manufacturer’s protocol, 150 µL (n = 6) of 1 × 10^6 CFU/mL of AB5075 in TSB was incubated for 24 h at 37 °C at 110 rpm for biofilm formation. The lid containing pegs was rinsed with sterile PBS for 5 min, and then the lid was placed in a peptide challenge polypropylene 96-well plate containing a decreasing series of drug concentrations and incubated for 24 h at 37 °C at 110 rpm. Pegs were washed three times with tap water, heat-fixed for 70 °C for 1 h, and stained with 0.1% crystal violet for 15 min. Excess stain was rinsed off with tap water and allowed to dry. Stained pegs were resolubilized with 200 µL of 33% glacial acetic acid. OD590 was obtained to measure the remaining biofilm. Pegs with only bacteria served as the growth control and 100% biofilm control. Media alone and media with a peptide/drug served as the sterility controls. […] The experiment was performed twice.

AB5075 [7] = experiment: Membrane depolarization assay (DiSC3(5)); conditions: 50 µg/mL, DiSC3(5) fluorescence, 20 min, versus untreated bacteria
Procedure: A membrane depolarization assay was performed using a cationic dye, 3,3′-dipropylthiadicarbocyanine iodide (DiSC3(5)) as we previously described, with some modifications. Briefly, AB5075 was grown overnight on a Tryptic Soy agar, and opaque colonies were emulsified in DPBS (Gibco) until the 0.5 McFarland standard was achieved (~1 × 10^8 CFU/mL). A bacterial suspension of 4 × 10^7 CFU/mL was prepared and washed twice with DPBS, and then bacteria were resuspended in DPBS containing 10 µg/mL of DiSC3(5). An aliquot of 100 µL of the bacteria DiSC3(5) suspension was added to a black 96-well flat plate (Ultracruz Polypropylene Microplate sc-204462, Santacruz, CA, USA). The plate was incubated at room temperature in BioTek Cytation 5 and monitored until fluorescence stopped decreasing. An aliquot of 100 µL of peptide or DPBS (the untreated control) was added to each well (a final concentration of peptide of 50 µg/mL) and the plate was immediately returned to the plate reader. […] Readings were taken every 15 s for 20 min (excitation = 622 nm; emission = 670 nm). The experiment was repeated twice.

SMILES: CC[C@H](C)CCCCC(=O)N[C@@H](CCN)C(=O)N[C@H](C(=O)N[C@@H](CCN)C(=O)N[C@H]1CCNC(=O)[C@H]([C@@H](C)O)NC(=O)[C@H](CCN)NC(=O)[C@H](CCN)NC(=O)[C@H](CC(C)C)NC(=O)[C@@H](Cc2ccccc2)NC(=O)[C@H](CCN)NC1=O)[C@@H](C)O [Polymyxin B] (HELM PEPTIDE1{[CC[C@H](C)CCCCC(=O)[*:2]].[Dab].T.[Dab].[Dab].[Dab].[dF].L.[Dab].[Dab].T}$PEPTIDE1,PEPTIDE1,5:R3-11:R2$$$V2.0; N-terminus assumed; bridges inferred)
- Time to complete killing (A. baumannii AB5075): ≤ 3 h
- Killing within 3 h (A. baumannii BAA-1710 [1]): failed to kill
- MIC (A. baumannii BAA-1710 [2]): 0.5 µg/mL (≈ 0.415 µM)
- MIC ([3]; A. baumannii AB5075 (MRSN959), Difco Mueller Hinton broth, 5 × 10^5 CFU/mL, 37 °C 5% CO2, 20–24 h, OD600, n = 3): 0.25 to 0.5 µg/mL
- MIC ([3]; A. baumannii AB5075, experiment shown in Figure S2): 0.5 µg/mL (≈ 0.415 µM)
- MIC (A. baumannii BAA-1800): 0.5 µg/mL (≈ 0.415 µM)
- MIC across the tested strains [4]: 0.25 to 0.5 µg/mL
- MIC (A. baumannii BAA-1794): 0.5 µg/mL (≈ 0.415 µM)
- Membrane permeabilization (AB5075 [5]): disrupted bacterial membranes
- Concentration giving complete eradication of bacteria (reduction in CFU) in pre-formed biofilms ([6]; AB5075 pre-formed biofilm, CFU determination): 2 µg/mL
- MBEC ([6]; MBEC100, AB5075 24 h pre-formed biofilm on pegs, 24 h challenge, crystal violet OD590, n = 6): * 2 µg/mL
- crystal violet-stained biofilm mass maintained ([6]; treated with between 2 and 16 µg/mL, AB5075 pre-formed biofilm): up to 40%
- Membrane depolarization (AB5075 [7]): significant membrane depolarization effect
